Data taken from patent US20240083857A1, “2-Methyl-Quinazolines” (Bayer Pharma Aktiengesellschaft, priority 2017, published 2024).

Experiments:
[1] = molecular target: Epidermal Growth Factor Receptor (EGFR) (Homo sapiens (Human), UniProt P00533); experiment: EGFR kinase assay (TR-FRET); type: biochemical; conditions: E-notation values; unit inferred; read-out: EGFR-assay IC50
In short: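 Read-out is the 665/620 nm HTRF ratio, from a Tb-cryptate anti-phosphotyrosine antibody and streptavidin-XL665 bound to phosphorylated biotin-peptide substrate. The enzyme, A431-derived EGFR (~3 U/ml), was given 15 min compound pre-binding at 22° C in Hepes pH 7.0 with Mg2+/Mn2+ before reaction.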

[2] = molecular target: K-Ras^G12C : hSOS1 interaction (Homo sapiens, UniProt Q07889); experiment: Biochemical assay 1: K-Ras^G12C interaction assay with hSOS1 (HTRF); type: binding; conditions: E-notation values; unit inferred; read-out: Assay 1 (KRAS-SOS interaction) IC50

Sequence of Epidermal Growth Factor Receptor (EGFR) (P00533 25-1210): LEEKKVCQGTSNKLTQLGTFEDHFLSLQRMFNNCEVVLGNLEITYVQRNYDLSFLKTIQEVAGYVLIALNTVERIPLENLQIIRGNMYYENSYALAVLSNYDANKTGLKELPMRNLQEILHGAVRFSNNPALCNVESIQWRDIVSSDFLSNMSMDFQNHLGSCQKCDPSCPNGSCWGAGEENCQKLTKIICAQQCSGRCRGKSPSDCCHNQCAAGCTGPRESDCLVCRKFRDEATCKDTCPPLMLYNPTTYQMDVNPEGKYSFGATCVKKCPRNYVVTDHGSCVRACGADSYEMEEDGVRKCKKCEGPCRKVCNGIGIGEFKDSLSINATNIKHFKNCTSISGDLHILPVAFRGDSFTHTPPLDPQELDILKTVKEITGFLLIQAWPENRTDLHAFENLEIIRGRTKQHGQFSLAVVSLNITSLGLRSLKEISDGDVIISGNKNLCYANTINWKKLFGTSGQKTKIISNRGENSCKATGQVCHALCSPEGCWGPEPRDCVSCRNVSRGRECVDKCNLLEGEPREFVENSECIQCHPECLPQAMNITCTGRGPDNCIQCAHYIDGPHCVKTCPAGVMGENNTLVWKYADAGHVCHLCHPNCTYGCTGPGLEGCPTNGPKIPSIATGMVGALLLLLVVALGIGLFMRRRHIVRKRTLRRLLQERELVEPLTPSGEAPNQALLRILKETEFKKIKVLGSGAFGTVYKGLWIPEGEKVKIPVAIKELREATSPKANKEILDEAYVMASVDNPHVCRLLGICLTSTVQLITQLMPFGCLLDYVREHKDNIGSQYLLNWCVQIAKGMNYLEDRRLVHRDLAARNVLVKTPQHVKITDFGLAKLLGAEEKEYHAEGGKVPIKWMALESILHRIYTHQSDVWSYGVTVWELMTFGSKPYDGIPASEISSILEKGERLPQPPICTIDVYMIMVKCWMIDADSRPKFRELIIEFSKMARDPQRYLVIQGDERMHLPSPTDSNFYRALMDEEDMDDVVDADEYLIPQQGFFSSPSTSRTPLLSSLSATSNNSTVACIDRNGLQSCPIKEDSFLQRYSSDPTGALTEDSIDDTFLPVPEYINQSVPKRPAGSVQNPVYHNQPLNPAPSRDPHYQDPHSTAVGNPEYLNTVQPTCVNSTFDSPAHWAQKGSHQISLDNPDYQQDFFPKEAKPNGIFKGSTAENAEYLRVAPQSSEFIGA

Row | Compound | IC50 [1] | IC50 [2]
1 | COc1cc2nc(C)nc(NC(C)c3cccc(OCc4ccccc4)c3)c2cc1OC (stereo not drawn) [Example 389, N-{1-[3-(benzyloxy)phenyl]ethyl}-6,7-dimethoxy-2-methylquinazolin-4-amine] | > 20000 nM | 6690 nM
2 | Cc1nc(N[C@H](C)c2cccc(Cl)c2)c2cc(C(C)(C)O)ccc2n1 [Example 392, 2-(4-{[(1R)-1-(3-chlorophenyl)ethyl]amino}-2-methylquinazolin-6-yl)propan-2-ol] | > 20000 nM | 338 nM
3 | COc1cc2nc(C)nc(N[C@H](C)c3cccc(-c4ccccc4CC(N)=O)c3)c2cc1OC [Example 393, 2-(3′-{(1R)-1-[(6,7-dimethoxy-2-methylquinazolin-4-yl)amno]ethyl}biphenyl-2-yl)acetamide] | > 20000 nM | 244 nM
4 | COc1cc2nc(C)nc(NC(C)c3ccc(-c4ccccc4CC(N)=O)s3)c2cc1OC (stereo not drawn) [Example 394, 2-[2-(5-{1-[(6,7-dimethoxy-2-methylquinazolin-4-yl)amino]ethyl}thiophen-2-yl)phenyl]acetamide] | > 20000 nM | 405 nM
5 | COc1cc2nc(C)nc(NC(C)c3ccc(-c4ccc(O)nc4)s3)c2cc1OC (stereo not drawn) [Example 395, 5-(5-{1-[(6,7-dimethoxy-2-methylquinazolin-4-yl)amino]ethyl}thiophen-2-yl)pyridin-2-ol] | 7070 nM | 984 nM
6 | COc1cc(C)c2nc(C)nc(N[C@H](C)c3cccc(Cl)c3)c2c1 [Example 396, N-[(1R)-1-(3-chlorophenyl)ethyl]-6-methoxy-2,8-dimethylquinazolin-4-amine] | > 20000 nM | 2240 nM
7 | COc1cc2nc(C)nc(NC(C)c3ccc(-c4cccc(Cl)c4CN)s3)c2cc1OC (stereo not drawn) [Example 397, N-[1-{5-[2-(aminomethyl)-3-chlorophenyl]thiophen-2-yl}ethyl]-6,7-dimethoxy-2-methylquinazolin-4-amine] | > 20000 nM | 297 nM
8 | COc1cc2nc(C)nc(NC(C)c3ccc(-c4ccc(Cl)cc4CN)s3)c2cc1OC (stereo not drawn) [Example 398, N-[1-{5-[2-(aminomethyl)-4-chlorophenyl]thiophen-2-yl}ethyl]-6,7-dimethoxy-2-methylquinazolin-4-amine] | > 20000 nM | 104 nM
9 | COc1cc2nc(C)nc(NC(C)c3cc(C)c(-c4ccc(F)cc4CN)s3)c2cc1OC (stereo not drawn) [Example 399, N-(1-{5-[2-(aminomethyl)-4-fluorophenyl]-4-methyl-2-thienyl}ethyl)-6,7-dimethoxy-2-methylquinazolin-4-amine] | > 20000 nM | 333 nM
10 | COc1cc2nc(C)nc(NC(C)c3cc(C)c(-c4ccccc4CN(C)C)s3)c2cc1OC (stereo not drawn) [Example 400, N-[1-(5-{2-[(dimethylamino)methyl]phenyl}-4-methyl-2-thienyl)ethyl]-6,7-dimethoxy-2-methylquinazolin-4-amine] | > 20000 nM | 78.7 nM
11 | COc1cc2nc(C)nc(NC(C)c3cc(C)c(-c4ccccc4CN(C)CCO)s3)c2cc1OC (stereo not drawn) [Example 401, 2-{[2-(5-{1-[(6,7-dimethoxy-2-methylquinazolin-4-yl)amino]ethyl}-3-methyl-2-thienyl)benzyl](methyl)amino}ethanol] | > 20000 nM | 76.3 nM
12 | CNCc1ccccc1-c1sc(C(C)Nc2nc(C)nc3cc(OC)c(OC)cc23)cc1C (stereo not drawn) [Example 402, 6,7-di methoxy-2-methyl-N-[1-(4-methyl-5-{2-[(methylamino)methyl]phenyl}thiophen-2-yl)ethyl]quinazolin-4-amine] | > 20000 nM | 82.8 nM
13 | COc1cc2nc(C)nc(NC(C)c3ccc(-c4ccccc4C(O)CO)s3)c2cc1OC (stereo not drawn) [Example 403] | > 20000 nM | 442 nM
14 | Cc1ccc2nc(C)nc(N[C@H](C)c3cccc(Cl)c3)c2c1 [Example 404, N-[(1R)-1-(3-chlorophenyl)ethyl]-2,6-dimethylquinazolin-4-amine] | > 20000 nM | 4680 nM
15 | Cc1nc(N[C@H](C)c2cccc(Cl)c2)c2cc(-c3cn[nH]c3)ccc2n1 [Example 405, N-[(1R)-1-(3-chlorophenyl)ethyl]-2-methyl-6-(1H-pyrazol-4-yl)quinazolin-4-amine] | > 20000 nM | 1110 nM
16 | Cc1nc(N[C@H](C)c2cccc(Cl)c2)c2cc(-c3cnn(C)c3)ccc2n1 [Example 406, N-[(1R)-1-(3-chlorophenyl)ethyl]-2-methyl-6-(1-methyl-1H-pyrazol-4-yl)quinazolin-4-amine] | > 20000 nM | 727 nM
17 | Cc1nc(N[C@H](C)c2cccc(Cl)c2)c2cc(C3CC3)ccc2n1 [Example 407, N-[(1R)-1-(3-chlorophenyl)ethyl]-6-cyclopropyl-2-methylquinazolin-4-amine] | > 20000 nM | 1250 nM

Row | Compound | IC50 [1] | IC50 [2]
18 | COc1cc2nc(C)nc(NC(C)c3ccc(-c4c(Cl)cccc4CNC(=O)OC(C)(C)C)s3)c2cc1OC (stereo not drawn) [Example 408, tert-butyl [3-chloro-2-(5-{1-[(6,7-dimethoxy-2-methylquinazolin-4-yl)amino]ethyl}thiophen-2-yl)benzyl]carbamate] | > 20000 nM | 533 nM
19 | COc1cc2nc(C)nc(NC(C)c3ccc(-c4c(Cl)cccc4CN)s3)c2cc1OC (stereo not drawn) [Example 409, N-[1-{5-[2-(aminomethyl)-6-chlorophenyl]thiophen-2-yl}ethyl]-6,7-dimethoxy-2-methylquinazolin-4-amine] | > 20000 nM | 49.2 nM
20 | COc1cc2nc(C)nc(NC(C)c3ccc(-c4ccnc(O)c4)s3)c2cc1OC (stereo not drawn) [Example 410, 4-(5-{1-[(6,7-dimethoxy-2-methylquinazolin-4-yl)amino]ethyl}-2-thienyl)pyridin-2-ol] | > 20000 nM | 4230 nM
21 | COc1cc2nc(C)nc(NC(C)c3ccc(-c4ccccc4C4CC(=O)N4)s3)c2cc1OC (stereo not drawn) [Example 411, 4-[2-(5-{1-[(6,7-dimethoxy-2-methylquinazolin-4-yl)amino]ethyl}thiophen-2-yl)phenyl]azetidin-2-one] | > 20000 nM | 14500 nM
22 | COc1cc2nc(C)nc(NC(C)c3ccc(-c4ccc(C#N)cc4CN(C)C)s3)c2cc1OC (stereo not drawn) [Example 413, 4-(5-{1-[(6,7-dimethoxy-2-methylquinazolin-4-yl)amino]ethyl}thiophen-2-yl)-3-[(dimethylamino)methyl]benzonitrile] | > 20000 nM | 223 nM
23 | Cc1nc(NC(C)c2ccc(Br)s2)c2cc(N3CCC(N(C)C)C3)ccc2n1 (stereo not drawn) [Example 414, N-[1-(5-bromothiophen-2-yl)ethyl]-6-[3-(dimethylamino)pyrrolidin-1-yl]-2-methylquinazolin-4-amine] | > 20000 nM | 1380 nM
24 | Cc1nc(NC(C)c2ccc(Br)s2)c2cc(N3CCN(C)CC3)ccc2n1 (stereo not drawn) [Example 416, N-[1-(5-bromothiophen-2-yl)ethyl]-2-methyl-6-(4-methylpiperazin-1-yl)quinazolin-4-amine] | > 20000 nM | 867 nM
25 | Cc1nc(NC(C)c2ccc(-c3ccccc3CN(C)C)s2)c2cc(N3CCN(C)CC3)ccc2n1 (stereo not drawn) [Example 417, N-[1-(5-{2-[(dimethylamino)methyl]phenyl}thiophen-2-yl)ethyl]-2-methyl-6-(4-methylpiperazin-1-yl)quinazolin-4-amine] | > 20000 nM | 45.5 nM
26 | Cc1nc(NC(C)c2ccc(-c3ccccc3CN(C)C)s2)c2cc(N3CCC(N(C)C)C3)ccc2n1 (stereo not drawn) [Example 418, N-[1-(5-{2-[(dimethylamino)methyl]phenyl}thiophen-2-yl)ethyl]-6-[3-(dimethylamino)pyrrolidin-1-yl]-2-methylquinazolin-4-amine] | > 20000 nM | 86.6 nM
27 | Cc1nc(NC(C)c2ccc(Br)s2)c2cc(N3CCCC3)ccc2n1 (stereo not drawn) [Example 419, N-[1-(5-bromothiophen-2-yl)ethyl]-2-methyl-6-(pyrrolidin-1-yl)quinazolin-4-amine] | > 20000 nM | 6450 nM
28 | CC(=O)Nc1ccc2nc(C)nc(NC(C)c3ccc(-c4ccccc4CN(C)C)s3)c2c1 (stereo not drawn) [Example 420, N-(4-{[1-(5-{2-[(dimethylamino)methyl]phenyl}thiophen-2-yl)ethyl]amino}-2-methylquinazolin-6-yl)acetamide] | > 20000 nM | 303 nM
29 | COc1ccc(-c2ccc(C(C)Nc3nc(C)nc4cc(OC)c(OC)cc34)s2)c(C)c1 (stereo not drawn) [Example 422, 6,7-dimethoxy-N-{1-[5-(4-methoxy-2-methylphenyl)thiophen-2-yl]ethyl}-2-methylquinazolin-4-amine] | > 20000 nM | 1470 nM
30 | Cc1nc(NC(C)c2ccc(-c3ccccc3CN(C)C)s2)c2cc(N)ccc2n1 (stereo not drawn) [Example 423, N4-[1-(5-{2-[(dimethylamino)methyl]phenyl}-2-thienyl)ethyl]-2-methylquinazoline-4,6-diamine] | > 20000 nM | 204 nM
31 | Cc1nc(NC(C)c2ccc(Br)s2)c2cc(N3CCN(Cc4cccnc4)CC3)ccc2n1 (stereo not drawn) [Example 424, N-[1-(5-bromothiophen-2-yl)ethyl]-2-methyl-6-[4-(pyridin-3-ylmethyl)piperazin-1-yl]quinazolin-4-amine] | > 20000 nM | 1590 nM
32 | Cc1nc(NC(C)c2ccc(Br)s2)c2cc(NCCN3CCOCC3)ccc2n1 (stereo not drawn) [Example 425, N4-[l-(5-bromo-2-thienyl)ethyl]-2-methyl-N6-[2-(morpholin-4-yl)ethyl]quinazoline-4,6-diamine] | > 20000 nM | 5820 nM
33 | Cc1nc(NC(C)c2ccc(-c3ccccc3CN(C)C)s2)c2cc(N3CCN(Cc4cccnc4)CC3)ccc2n1 (stereo not drawn) [Example 426, N-[1-(5-{2-[(dimethylamino)methyl]phenyl}thiophen-2-yl)ethyl]-2-methyl-6-[4-(pyridin-3-ylmethyl)piperazin-1-yl]quinazolin-4-amine] | 4950 nM | 33.2 nM
